Test results as given in ChEMBL document CHEMBL1201862, “PubChem BioAssay data set” (2004).
The source made the active and inactive calls.

Experiments:
[1] = blockers of bursicon-stimulated LGR2 cAMP reporter – cell-based, HEK293, CRE-luciferase reporter, cherry pick, set 2, dose response (AID 743343); format: functional;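 note: transfected cells were stimulated with diluted bursicon conditioned medium after compound addition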
[2] = toxicity toward HepG2 liver cells – cell-based, plate reader, cherry-pick, antagonist series, cytotoxicity control, dose response (AID 743416); format: functional
[3] = viability loss in HEK293 cells – cell-based, plate reader, cherry-picked samples, cytotoxicity control, dose response (AID 743446); format: functional
[4] = blockade of melanocortin 4 receptor signaling – cell-based, plate reader, cherry pick, counter-screen for LGR2 antagonist project, dose response (AID 743444); format: functional;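 note: transfected HEK 293 cells stimulated with alpha-MSH peptide; potency of inhibitors of the alpha-MSH evoked signal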
[5] = molecular target: Neurotensin receptor type 1 (Homo sapiens, UniProt P30989); format: functional;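 note: Image-based confirmatory dose-response assay measuring agonist activity at NTR1; NTR1-expressing U2OS osteosarcoma cells imaged for beta-arrestin GFP spot formation; agonist potency where compounds increase beta-arrestin recruitment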
Neurotensin receptor type 1, sequence (P30989 whole entry): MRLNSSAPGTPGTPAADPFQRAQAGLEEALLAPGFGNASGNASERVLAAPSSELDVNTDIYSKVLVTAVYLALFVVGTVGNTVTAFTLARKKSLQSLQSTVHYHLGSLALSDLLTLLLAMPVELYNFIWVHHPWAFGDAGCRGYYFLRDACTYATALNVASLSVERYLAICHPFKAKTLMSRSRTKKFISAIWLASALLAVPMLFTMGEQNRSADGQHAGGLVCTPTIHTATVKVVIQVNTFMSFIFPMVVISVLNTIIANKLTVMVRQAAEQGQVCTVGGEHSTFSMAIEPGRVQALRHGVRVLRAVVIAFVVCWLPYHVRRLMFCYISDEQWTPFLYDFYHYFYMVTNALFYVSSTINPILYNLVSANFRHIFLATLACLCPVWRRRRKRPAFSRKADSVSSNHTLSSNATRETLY

Bcl-2-related protein A1 = molecular target: T1, Bcl-2-related protein A1 (Mus musculus, UniProt Q07440); format: functional;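 note: confirmatory dose–response counterscreen on Bfl-1, used to check hits from a UBC13 polyubiquitin inhibitor campaign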
T1 sequence (Q07440 whole entry): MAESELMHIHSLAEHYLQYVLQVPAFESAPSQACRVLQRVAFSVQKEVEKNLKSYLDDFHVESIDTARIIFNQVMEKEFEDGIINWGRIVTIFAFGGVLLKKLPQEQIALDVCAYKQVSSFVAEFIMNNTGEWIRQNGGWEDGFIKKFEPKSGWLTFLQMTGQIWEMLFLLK

[6] = molecular target: T2, Ubiquitin-conjugating enzyme E2 N (Homo sapiens, UniProt P61088); format: functional
T2 sequence (P61088 whole entry): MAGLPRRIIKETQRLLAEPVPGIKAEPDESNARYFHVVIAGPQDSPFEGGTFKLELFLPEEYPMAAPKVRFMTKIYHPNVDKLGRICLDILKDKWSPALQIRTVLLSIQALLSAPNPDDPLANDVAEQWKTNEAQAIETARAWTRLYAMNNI

[7] = A549 cell cytotoxicity, dose response, cytotoxicity control, plate reader, cherry-pick, antagonist series (AID 743412); format: functional, cell-based
[8] = molecular target: T2, Ubiquitin-conjugating enzyme E2 N; format: functional; remark: listed apart in the source
Beta-galactosidase = Beta-galactosidase (Escherichia coli, UniProt Q8VNN2); experiment: detection-enzyme interference by beta-gal modulators – biochemical, E. coli enzyme, set 3, artefact control for CCR6 antagonist project, dose response (AID 504712); format: functional
Beta-galactosidase, sequence (Q8VNN2 whole entry): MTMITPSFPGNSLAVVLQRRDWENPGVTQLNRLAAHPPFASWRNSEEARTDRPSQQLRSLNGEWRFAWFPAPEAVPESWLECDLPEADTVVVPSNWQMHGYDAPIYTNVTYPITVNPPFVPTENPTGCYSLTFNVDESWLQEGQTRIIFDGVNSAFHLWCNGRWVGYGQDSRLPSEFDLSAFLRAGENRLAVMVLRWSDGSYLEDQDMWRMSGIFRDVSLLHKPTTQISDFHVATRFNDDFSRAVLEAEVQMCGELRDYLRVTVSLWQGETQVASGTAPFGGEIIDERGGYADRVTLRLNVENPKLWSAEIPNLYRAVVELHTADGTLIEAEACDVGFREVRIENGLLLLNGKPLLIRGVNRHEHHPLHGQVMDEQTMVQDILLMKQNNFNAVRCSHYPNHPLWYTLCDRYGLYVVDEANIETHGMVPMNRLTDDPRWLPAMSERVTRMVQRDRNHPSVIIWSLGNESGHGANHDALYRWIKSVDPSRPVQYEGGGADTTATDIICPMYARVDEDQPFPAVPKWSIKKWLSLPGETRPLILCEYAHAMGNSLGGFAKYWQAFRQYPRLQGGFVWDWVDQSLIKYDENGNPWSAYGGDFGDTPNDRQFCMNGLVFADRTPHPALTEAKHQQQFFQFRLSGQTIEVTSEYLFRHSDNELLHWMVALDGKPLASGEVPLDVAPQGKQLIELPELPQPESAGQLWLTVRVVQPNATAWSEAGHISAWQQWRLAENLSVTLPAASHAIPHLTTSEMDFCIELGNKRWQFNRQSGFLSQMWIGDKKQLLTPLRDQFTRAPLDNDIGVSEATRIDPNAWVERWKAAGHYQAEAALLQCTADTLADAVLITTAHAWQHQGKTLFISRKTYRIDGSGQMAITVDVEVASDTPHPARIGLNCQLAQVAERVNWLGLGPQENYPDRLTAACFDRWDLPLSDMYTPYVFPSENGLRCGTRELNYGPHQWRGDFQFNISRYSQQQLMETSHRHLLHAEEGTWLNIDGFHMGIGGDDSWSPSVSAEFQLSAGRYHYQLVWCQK

Hexokinase HKDC1 = molecular target: T3, Hexokinase HKDC1 (Homo sapiens, UniProt Q2TB90); experiment: inhibition of HKDC1 glucose phosphorylation – biochemical, W721R variant, dose response (AID 504729); format: functional
T3 sequence (Q2TB90 whole entry): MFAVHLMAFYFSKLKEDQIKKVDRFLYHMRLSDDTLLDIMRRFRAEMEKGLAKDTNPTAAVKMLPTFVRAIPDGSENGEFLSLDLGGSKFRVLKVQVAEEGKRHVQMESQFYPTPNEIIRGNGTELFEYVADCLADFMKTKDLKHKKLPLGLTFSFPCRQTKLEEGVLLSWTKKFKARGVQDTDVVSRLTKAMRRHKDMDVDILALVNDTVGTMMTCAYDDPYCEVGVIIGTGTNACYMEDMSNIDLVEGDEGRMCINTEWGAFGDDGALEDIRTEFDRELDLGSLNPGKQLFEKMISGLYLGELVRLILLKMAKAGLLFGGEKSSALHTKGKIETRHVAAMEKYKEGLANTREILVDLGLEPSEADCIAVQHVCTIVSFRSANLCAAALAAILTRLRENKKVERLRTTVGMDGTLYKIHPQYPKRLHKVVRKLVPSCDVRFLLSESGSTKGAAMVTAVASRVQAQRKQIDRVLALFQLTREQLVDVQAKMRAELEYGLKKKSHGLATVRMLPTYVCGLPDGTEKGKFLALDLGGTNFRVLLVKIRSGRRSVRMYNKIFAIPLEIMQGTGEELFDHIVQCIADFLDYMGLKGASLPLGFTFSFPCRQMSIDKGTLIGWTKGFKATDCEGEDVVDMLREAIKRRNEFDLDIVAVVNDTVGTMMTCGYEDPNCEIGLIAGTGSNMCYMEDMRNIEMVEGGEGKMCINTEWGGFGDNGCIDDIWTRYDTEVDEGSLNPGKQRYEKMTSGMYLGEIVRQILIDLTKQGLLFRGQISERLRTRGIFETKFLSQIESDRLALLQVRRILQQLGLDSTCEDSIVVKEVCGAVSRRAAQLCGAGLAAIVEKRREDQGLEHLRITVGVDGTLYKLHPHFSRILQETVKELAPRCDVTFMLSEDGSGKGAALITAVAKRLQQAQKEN

[9] = NIH3T3 cell viability loss – ATP luminescence, mouse fibroblasts, counter-screen, dose response (AID 2010); format: functional, cell-based;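 note: cells exposed to compound for about 90 hours before reading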
[10] = molecular target: T4, Nucleotide-binding oligomerization domain-containing protein 2 (Homo sapiens, UniProt Q9HC29); experiment: PubChem AID 2334; format: functional
T4 sequence (Q9HC29 whole entry, the tested form may be a part): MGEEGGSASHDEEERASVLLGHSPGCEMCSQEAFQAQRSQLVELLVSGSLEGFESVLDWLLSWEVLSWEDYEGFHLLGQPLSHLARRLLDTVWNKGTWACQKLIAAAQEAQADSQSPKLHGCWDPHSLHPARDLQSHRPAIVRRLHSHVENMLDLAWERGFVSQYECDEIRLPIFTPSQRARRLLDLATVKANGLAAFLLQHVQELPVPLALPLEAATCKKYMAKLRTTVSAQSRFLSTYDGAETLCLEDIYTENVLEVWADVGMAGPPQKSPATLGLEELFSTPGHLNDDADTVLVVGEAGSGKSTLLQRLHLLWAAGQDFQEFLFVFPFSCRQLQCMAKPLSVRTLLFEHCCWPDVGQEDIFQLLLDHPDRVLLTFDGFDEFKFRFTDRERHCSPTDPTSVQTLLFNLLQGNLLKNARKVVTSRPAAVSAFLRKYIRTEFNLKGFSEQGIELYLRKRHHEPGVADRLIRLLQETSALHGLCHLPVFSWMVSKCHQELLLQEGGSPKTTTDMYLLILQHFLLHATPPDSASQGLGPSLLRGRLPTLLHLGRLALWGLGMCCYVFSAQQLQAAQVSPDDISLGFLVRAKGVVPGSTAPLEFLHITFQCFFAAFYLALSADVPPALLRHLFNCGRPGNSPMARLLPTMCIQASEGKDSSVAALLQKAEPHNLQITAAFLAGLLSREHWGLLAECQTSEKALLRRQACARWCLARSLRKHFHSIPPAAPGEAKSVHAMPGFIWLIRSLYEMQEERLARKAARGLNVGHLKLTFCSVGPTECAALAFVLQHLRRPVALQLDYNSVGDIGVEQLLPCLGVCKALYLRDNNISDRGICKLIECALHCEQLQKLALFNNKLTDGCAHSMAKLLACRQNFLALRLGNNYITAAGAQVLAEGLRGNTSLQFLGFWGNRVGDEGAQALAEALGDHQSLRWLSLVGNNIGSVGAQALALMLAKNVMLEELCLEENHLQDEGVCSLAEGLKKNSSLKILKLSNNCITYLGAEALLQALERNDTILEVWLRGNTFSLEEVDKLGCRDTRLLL

[11] = Trypanosoma cruzi growth suppression in host cells – NIH3T3 host cells, beta-gal luminescence, confirmation (AID 2044); format: functional, cell-based;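 note: intracellular parasites grown in NIH/3T3 mouse fibroblasts as host cells; luminescent beta-galactosidase reporter signal from transgenic T. cruzi replicating inside host cells; inhibitors lower the luminescence signal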
HEK293 [12] = experiment: cells; format: functional, cell-based; conditions: Homo sapiens
HEK293 [13] = experiment: cells; format: functional, cell-based; conditions: Homo sapiens; remark: listed apart in the source
[14] = molecular target: T5, Nucleotide-binding oligomerization domain-containing protein 1 (Homo sapiens, UniProt Q9Y239); experiment: blockers of NOD1 pathway activity – revised, SAR follow-up (AID 2333); format: functional
T5 sequence (Q9Y239 whole entry): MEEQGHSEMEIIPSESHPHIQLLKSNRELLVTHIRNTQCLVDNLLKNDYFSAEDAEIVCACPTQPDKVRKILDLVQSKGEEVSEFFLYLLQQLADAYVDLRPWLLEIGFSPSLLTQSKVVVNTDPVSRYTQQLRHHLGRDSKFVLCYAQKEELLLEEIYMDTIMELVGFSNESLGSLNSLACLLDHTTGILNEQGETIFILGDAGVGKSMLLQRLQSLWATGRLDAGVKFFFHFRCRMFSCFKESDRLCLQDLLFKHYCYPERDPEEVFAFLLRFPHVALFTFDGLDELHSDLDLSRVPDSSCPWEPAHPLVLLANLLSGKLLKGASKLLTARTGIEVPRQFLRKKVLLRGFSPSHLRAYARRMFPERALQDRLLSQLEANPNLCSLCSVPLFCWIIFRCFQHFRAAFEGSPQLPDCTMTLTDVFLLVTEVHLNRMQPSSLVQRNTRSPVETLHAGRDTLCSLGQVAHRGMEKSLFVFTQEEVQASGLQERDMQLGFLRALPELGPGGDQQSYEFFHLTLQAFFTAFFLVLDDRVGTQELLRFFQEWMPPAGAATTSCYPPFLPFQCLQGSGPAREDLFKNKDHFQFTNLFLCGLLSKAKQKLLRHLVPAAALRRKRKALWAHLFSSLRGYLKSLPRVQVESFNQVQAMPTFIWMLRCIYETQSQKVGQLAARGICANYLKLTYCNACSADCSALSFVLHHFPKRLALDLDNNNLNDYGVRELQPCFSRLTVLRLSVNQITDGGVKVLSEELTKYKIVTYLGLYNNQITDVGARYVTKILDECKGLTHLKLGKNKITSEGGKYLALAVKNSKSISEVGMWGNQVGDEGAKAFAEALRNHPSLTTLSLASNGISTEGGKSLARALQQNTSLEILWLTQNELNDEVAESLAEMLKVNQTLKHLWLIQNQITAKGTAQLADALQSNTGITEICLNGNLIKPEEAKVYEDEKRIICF

HEK293 [15] = experiment: cells; conditions: Homo sapiens
HEK293 [16] = experiment: inhibition of NOD1-driven NF-kB reporter – cell-based, luminescence, uHTS, primary screen (AID 1578); format: functional; conditions: Homo sapiens
HEK293 [17] = experiment: cells; format: functional, cell-based; conditions: Homo sapiens; remark: listed apart in the source
Vero = experiment: cells; format: functional, cell-based; conditions: Chlorocebus sabaeus
[18] = molecular target: T4, Nucleotide-binding oligomerization domain-containing protein 2; experiment: inhibition of NOD2-driven NF-kB reporter – cell-based, luminescence, uHTS, HEK293 (AID 1566); format: functional
HEK293 [19] = experiment: NOD2 signaling inhibitors in MDP-stimulated cells, cell-based, uHTS, luminescence (AID 2001); format: functional; conditions: Homo sapiens
Tumor necrosis factor = Tumor necrosis factor (Homo sapiens, UniProt P01375); experiment: analog potency on TNFa NF-kB signaling – cell-based, revised, SAR follow-up (AID 2337); format: functional
Tumor necrosis factor, sequence (P01375 whole entry): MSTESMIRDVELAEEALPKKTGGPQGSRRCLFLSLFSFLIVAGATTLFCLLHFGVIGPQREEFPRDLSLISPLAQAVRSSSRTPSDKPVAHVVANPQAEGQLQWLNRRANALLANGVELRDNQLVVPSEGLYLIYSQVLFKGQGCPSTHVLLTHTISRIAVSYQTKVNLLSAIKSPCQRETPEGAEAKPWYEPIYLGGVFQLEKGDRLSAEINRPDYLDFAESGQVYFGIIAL

[20] = HEK-293T cell viability reduction – luminescence, B-cell screen hits, cytotoxicity control for BCR NF-kB inhibitor project, dose response (AID 489021); format: functional, cell-based;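 note: HEK-293T cells carrying an NF-kB luciferase reporter; cells exposed to compound for about 14 hours before viability readout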
Bcl-2-like protein 10 = molecular target: T6, Bcl-2-like protein 10 (Homo sapiens, UniProt Q9HD36); experiment: Bcl-B/TR3 peptide binding disruption – biochemical, fluorescence polarization, FITC-TR3 peptide, selectivity assay for Bfl-1 inhibitor project, primary screen (AID 748);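 note: fluorescence polarization from a fluorescein-labelled TR3 peptide binding purified Bcl-B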
T6 sequence (Q9HD36 whole entry): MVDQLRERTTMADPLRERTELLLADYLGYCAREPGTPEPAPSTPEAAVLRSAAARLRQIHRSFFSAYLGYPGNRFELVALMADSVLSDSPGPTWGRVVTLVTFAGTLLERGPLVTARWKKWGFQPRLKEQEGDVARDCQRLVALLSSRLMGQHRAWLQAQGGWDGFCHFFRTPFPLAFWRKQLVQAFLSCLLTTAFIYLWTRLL

cells = format: functional
[21] = HepG2 cell cytotoxicity, dose response, cytotoxicity control for non-replicating M. tuberculosis project (AID 489018); format: functional; conditions: Mycobacterium tuberculosis
[22] = THP-1 cell cytotoxicity, dose response, cytotoxicity control for non-replicating M. tuberculosis project (AID 489025); format: functional
[23] = Luminescence Cell-Based Dose Retest to Confirm Inhibitors of Cancer Stem Cells. [Related pubchem assays (depositor defined):AID2717, AID2721]; format: functional; conditions: Homo sapiens
[24] = molecular target: Beta-2 adrenergic receptor (Homo sapiens, UniProt P07550); experiment: ADRB2 activation measured by internalization – cell-based, FAP fluorogen, flow cytometry, cherry pick 1, dose response (AID 588763); format: functional
Beta-2 adrenergic receptor, sequence (P07550 whole entry): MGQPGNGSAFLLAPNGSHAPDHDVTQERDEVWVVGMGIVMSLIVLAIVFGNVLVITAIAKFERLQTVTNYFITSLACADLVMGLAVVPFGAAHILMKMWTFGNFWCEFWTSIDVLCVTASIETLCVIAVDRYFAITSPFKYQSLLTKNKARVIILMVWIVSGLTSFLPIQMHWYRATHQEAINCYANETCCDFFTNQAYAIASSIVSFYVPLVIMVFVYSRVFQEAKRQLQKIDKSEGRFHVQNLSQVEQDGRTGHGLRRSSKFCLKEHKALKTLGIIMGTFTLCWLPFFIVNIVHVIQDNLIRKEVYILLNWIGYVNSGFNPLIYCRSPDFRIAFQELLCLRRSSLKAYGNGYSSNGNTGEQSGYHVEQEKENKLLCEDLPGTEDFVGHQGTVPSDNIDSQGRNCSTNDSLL

[25] = Vero E6 cell cytotoxicity, dose response, cytotoxicity control for non-replicating M. tuberculosis project, secondary assay (AID 492998); format: functional, VeroE6; conditions: Vero C1008
[26] = non-specific 3'UTR reporter inhibition in Clone20-Shn3RL – cell-based, Renilla luciferase, cherry-picked, counter-screen for Shn3 inhibitor project, dose response (AID 624133); format: functional
[27] = loss of viability in HepG2 cells – cell-based, CellTiter-Glo, cherry-picked, cytotoxicity control for Shn3 inhibitor project, dose response (AID 624134); format: functional
[28] = reduction of Shn3 3'UTR-driven luciferase in osteoblasts – cell-based, Clone20 osteoblasts, firefly luciferase, cherry-picked, dose response (AID 624132); format: functional;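 note: firefly luciferase luminescence from reporter carrying the Shn3 3'UTR in osteoblasts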
[29] = luciferase reporter signal suppression in cells – H4 neuroglioma cells, luminescence, dose response (AID 1990); format: functional, cell-based
[30] = Luminescence Cell-Based Dose Response HTS to Identify Inhibitors of 5'UTR Stem-Loop Driven Prion Protein mRNA Translation in H4 Neuroglioblastoma Cells. [Related pubchem assays: 1827 (Project Summary), 1813 (Primary HTS)]; format: functional
[31] = alpha-synuclein stem-loop luciferase translation blockers – H4 neuroglioma cells, luminescence, confirmation (AID 1988); format: functional, cell-based

SMILES: CCOC(=O)/C(=C\c1cccc(O)c1)c1nc(O)c2c(C)c(C)sc2n1
- AC50 [1]: 12.9 µM (active)
- AC50 [2]: 13.5 µM (active)
- AC50 [3]: 22.8 µM (active)
- AC50 [4]: 24.5 µM (active)
- EC50 [5]: 6.59 µM (active)
- IC50 (Bcl-2-related protein A1): > 20 µM (inactive)
- IC50 [6]: > 20 µM (inactive)
- AC50 [7]: 20.3 µM (active)
- IC50 [8]: 16.4 µM (active)

SMILES: COC(=O)c1ccc(CCc2cc(O)c(Br)cc2O)cc1
- IC50 (Beta-galactosidase): > 66.6 µM (inactive)
- IC50 (Hexokinase HKDC1): 6.54 µM (active)

SMILES: Cc1ccc2c(c1)CCCN2S(=O)(=O)c1cccc(C(=O)Nc2ccccc2C(=O)O)c1
- EC50 [9]: 4.22 µM (active)
- IC50 [10]: 12.6 µM (active)
- EC50 [11]: 4.95 µM (active)
- IC50 (HEK293 [12]): > 20 µM (inactive)
- IC50 (HEK293 [13]): > 20 µM (inactive)
- IC50 [14]: 9.05 µM (active)
- IC50 (HEK293 [15]): > 20 µM (inactive)
- EC50 (HEK293 [16]): 9.32 µM (active)
- IC50 (HEK293 [17]): > 20 µM (inactive)
- IC50 (Vero): > 25 µM (active)
- EC50 [18]: 4.45 µM (active)
- IC50 (HEK293 [19]): 15.9 µM (inactive)
- IC50 (Tumor necrosis factor): 7.52 µM (active)

SMILES: COc1ccc(-c2ccc(OC)c([C@H]3[C@H]4C=CC[C@@H](C)[C@@H]4C(=O)N3Cc3ccccc3)c2)cc1
- IC50 [20]: > 80 µM (inactive)

SMILES: COc1cc(CNCCc2c[nH]c3ccccc23)ccc1OCc1ccc(F)cc1
- IC50 (Bcl-2-like protein 10): > 100 µM (inactive)
- IC50 (cells): 10.7 µM (active)
- CC50 [21]: 8 µM (active)
- CC50 [22]: 12 µM (active)
- AC50 [23]: 5 µM (active)
- EC50 [24]: 36.7 µM (inactive)
- CC50 [25]: 11.3 µM (active)

SMILES: O=C(CCCCCn1c(=S)[nH]c2ccccc2c1=O)NCc1ccc2c(c1)OCO2
- IC50 (Bcl-2-like protein 10): > 100 µM (inactive)
- EC50 [24]: 0.0077 µM (active)

SMILES: Cn1nnnc1Sc1ncnc2scc(Br)c12
- AC50 [26]: 12.5 µM (active)
- AC50 [27]: 39 µM (active)
- IC50 [20]: > 80 µM (inactive)
- AC50 [23]: 2.12 µM (active)
- AC50 [28]: 6.51 µM (active)

SMILES: CCCCCn1c(=O)c(C(=O)Nc2ccccc2S(N)(=O)=O)c(O)c2ccccc21
- EC50 [29]: > 120 µM (not active)
- EC50 [30]: > 120 µM (not active)
- EC50 [31]: 9.08 µM (active)
- EC50 [9]: > 30 µM (not active)
- IC50 [10]: 6.92 µM (active)
- EC50 [11]: 2.07 µM (active)
- IC50 (HEK293 [12]): > 20 µM (inactive)
- IC50 (HEK293 [13]): > 20 µM (inactive)
- IC50 [14]: 5.88 µM (active)
- IC50 (HEK293 [15]): > 20 µM (inactive)
- EC50 (HEK293 [16]): 6.17 µM (active)
- IC50 (HEK293 [17]): > 20 µM (inactive)
- EC50 [18]: 5.7 µM (active)
- IC50 (HEK293 [19]): 8.2 µM (active)
- IC50 (Tumor necrosis factor): 3.44 µM (active)
